In patent publication US7482351B2, “4-pyrimidineamine compounds and their uses as anti-proliferative agents” (Rigel Pharmaceuticals, Inc., priority 2004, dated 2009):

Tests used:
Type in all cases: cell-based
[1] = tested on: H1299 (non small cell lung carcinoma) cells; experiment: in vitro inhibition of H1299 cells
Experimental: (§1) Various exemplary 5-fluoro-4-pyrmidineamine compounds (illustrated in TABLE 1, infra) were synthesized as described herein and tested for their ability to inhibit A549 (lung carcinoma), DLD-1 (colorectal adenocarcinoma), H1299 (non small cell lung carcinoma), HCT116 (colorectal carcinoma), HELA (cervical adenocarcinoma) and/or U2OS (bone osterosarcoma) cells in vitro. […] A blank indicates the particular compound was […].

[2] = tested on: U2OS (bone osterosarcoma) cells; experiment: in vitro inhibition of U2OS cells
Experimental: as §1

[3] = tested on: HELA (cervical adenocarcinoma) cells; experiment: in vitro inhibition of HELA cells
Experimental: as §1

[4] = tested on: MCF7 (estrogen-dependent breast adenocarcinoma); experiment: additional cell line MCF7
Experimental: (§2) Compound 1 was tested against the following additional cell lines: ACHN (renal cell adenocarcimona), JAR (placental choriocarcinoma), MCF7 (estrogen-dependent breast adenocarcinoma), MDA-MB-231 (estrogen independent breast adenocarcinoma), SKMEL28 (human melanoma) and SKMEL5 (human melanoma). In all cases, the IC50 was less than 1 μM.

[5] = tested on: MDA-MB-231 (estrogen independent breast adenocarcinoma); experiment: additional cell line MDA-MB-231; settings: MDA-MB-231 cell line
Experimental: as §2

[6] = tested on: JAR (placental choriocarcinoma); experiment: additional cell line JAR
Experimental: as §2

[7] = tested on: HCT116 (colorectal carcinoma) cells; experiment: in vitro inhibition of HCT116 cells
Experimental: as §1

[8] = tested on: ACHN (renal cell adenocarcimona); experiment: additional cell line ACHN
Experimental: as §2

SKMEL28 (human melanoma) = experiment: additional cell line SKMEL28
Experimental: as §2

SKMEL5 (human melanoma) = experiment: additional cell line SKMEL5
Experimental: as §2

[9] = tested on: A549 (lung carcinoma) cells; experiment: in vitro inhibition of A549 cells
Experimental: as §1

[10] = tested on: DLD-1 (colorectal adenocarcinoma) cells; experiment: in vitro inhibition of DLD-1 cells; settings: DLD-1 (colorectal adenocarcinoma) cells in vitro
Experimental: as §1

HCT116 = experiment: 9-point anti-proliferation assay, HCT116; settings: HCT116, 9-point anti-proliferation assay
[11] = tested on: Colo205 (colorectal adenocarcinoma); experiment: 9-point anti-proliferation assay, Colo205; settings: Colo205, 9-point anti-proliferation assay
A549 = experiment: 9-point anti-proliferation assay, A549; settings: A549, 9-point anti-proliferation assay
[12] = tested on: Miapaca2 (pancreatic carcinoma); experiment: 9-point anti-proliferation assay, Miapaca2; settings: Miapaca2, 9-point anti-proliferation assay

| Molecule | IC50 [1] [nM] | IC50 [9] [nM] | further results |
| --- | --- | --- | --- |
| CN(c1ccc2c(c1)OCCO2)c1nc(-c2ccccc2)ncc1F [Compound 18, N4-(3,4-Ethylenedioxyphenyl)-5-fluoro-N-4-methyl-2-(phenyl)-4-pyrimidineamine] | ≤ 1000 | ≤ 1000 | – |
| COc1ccc(-c2ncc(F)c(N(C)c3ccc4c(c3)OCCO4)n2)cc1OC [Compound 20, N4-(3,4-Ethylenedioxyphenyl)-2-(3,4-dimethoxyphenyl)-5-fluoro-N-4-methyl-4-pyrimidineamine] | > 20000 | > 20000 | IC50 [2]: > 20000 nM; IC50 [3]: > 20000 nM; IC50 [10]: > 20000 nM; IC50 [7]: > 20000 nM |
| CN(c1ccc2c(c1)OCCO2)c1nc(-c2ccc3c(c2)OCO3)ncc1F [Compound 21, N4-(3,4-Ethylenedioxyphenyl)-5-fluoro-N-4-methyl-2-(3,4-methylenedioxyphenyl)-4-pyrimidineamine] | 1000 to 10000 | ≤ 10000 | IC50 [2]: ≤ 20000 nM; IC50 [3]: ≤ 20000 nM; IC50 [10]: ≤ 20000 nM; IC50 [7]: ≤ 20000 nM |
| CN(c1ccc2c(c1)OCCO2)c1nc(-c2ccco2)ncc1F [Compound 22, N4-(3,4-Ethylenedioxyphenyl)-5-fluoro-2-(2-furyl)-N-4-methyl-4-pyrimidineamine] | ≤ 1000 | ≤ 1000 | IC50 [2]: ≤ 10000 nM; IC50 [3]: ≤ 10000 nM; IC50 [10]: ≤ 10000 nM; IC50 [7]: ≤ 10000 nM |
| CN(c1ccc2c(c1)OCCO2)c1nc(-c2cccc(N)c2)ncc1F [Compound 23, 2-(3-Aminophenyl)-N-4-(3,4-ethylenedioxyphenyl)-5-fluoro-N-4-methyl-4-pyrimidineamine] | ≤ 1000 | ≤ 1000 | IC50 [2]: ≤ 10000 nM; IC50 [3]: ≤ 10000 nM; IC50 [10]: ≤ 10000 nM; IC50 [7]: ≤ 10000 nM |
| CN(c1ccc2c(c1)OCCO2)c1nc(-c2ccsc2)ncc1F [Compound 25, N4-(3,4-Ethylenedioxyphenyl)-5-fluoro-N-4-methyl-2-(3-thienyl)-4-pyrimidineamine] | ≤ 1000 | ≤ 1000 | IC50 [2]: ≤ 1000 nM; IC50 [3]: ≤ 1000 nM; IC50 [10]: ≤ 1000 nM; IC50 [7]: ≤ 1000 nM; IC50 (HCT116): < 1000 nM; IC50 [11]: < 1000 nM; IC50 (A549): < 1000 nM; IC50 [12]: < 1000 nM |
| CN(c1ccc2c(c1)OCCO2)c1nc(-c2ccoc2)ncc1F [Compound 26, N4-(3,4-Ethylenedioxyphenyl)-5-fluoro-2-(3-furyl)-N-4-methyl-4-pyrimidineamine] | ≤ 1000 | ≤ 1000 | IC50 [2]: ≤ 1000 nM; IC50 [3]: ≤ 1000 nM; IC50 [10]: ≤ 1000 nM; IC50 [7]: ≤ 1000 nM |
| CN(c1ccc2c(c1)OCCO2)c1nc(-c2cccnc2)ncc1F [Compound 27, N4-(3,4-Ethylenedioxyphenyl)-5-fluoro-N-4-methyl-2-(pyridin-3-yl)-4-pyrimidineamine] | 1000 to 10000 | ≤ 10000 | – |
| CN(c1ccc2c(c1)OCCO2)c1nc(-c2ccncc2)ncc1F [Compound 28, N4-(3,4-Ethylenedioxyphenyl)-5-fluoro-N-4-methyl-2-(pyridin-4-yl)-4-pyrimidineamine] | ≤ 1000 | ≤ 1000 | – |
| Cc1noc(C)c1-c1ncc(F)c(N(C)c2ccc3c(c2)OCCO3)n1 [Compound 29, 2-(3,5-Dimethylisoxazol-4-yl)-N-4-(3,4-ethylenedioxyphenyl)-5-fluoro-N-4-methyl-4-pyrimidineamine] | 1000 to 10000 | ≤ 10000 | – |
| CN(c1ccc2c(c1)OCCO2)c1nc(-c2nccs2)ncc1F [Compound 30, N4-(3,4-Ethylenedioxyphenyl)-5-fluoro-N-4-methyl-2-(thiazol-2-yl)-4-pyrimidineamine] | 1000 to 10000 | ≤ 10000 | – |
| CN(c1ccc2c(c1)OCCO2)c1nc(-c2ccc[nH]2)ncc1F [Compound 31, N4-(3,4-Ethylenedioxyphenyl)-5-fluoro-N-4-methyl-2-(1H-pyrrol-2-yl)-4-pyrimidineamine] | ≤ 1000 | ≤ 1000 | IC50 [2]: ≤ 1000 nM; IC50 [3]: ≤ 1000 nM; IC50 [10]: ≤ 1000 nM; IC50 [7]: ≤ 1000 nM |
| Cc1ccc(-c2ncc(F)c(N(C)c3ccc4c(c3)OCCO4)n2)s1 [Compound 33, N4-(3,4-Ethylenedioxyphenyl)-5-fluoro-N-4-methyl-2-(5-methyl-2-thienyl)-4-pyrimidineamine] | 1000 to 10000 | ≤ 10000 | – |
| Cc1cscc1-c1ncc(F)c(N(C)c2ccc3c(c2)OCCO3)n1 [Compound 34, N4-(3,4-Ethylenedioxyphenyl)-5-fluoro-N-4-methyl-2-(4-methyl-3-thienyl)-4-pyrimidineamine] | ≤ 1000 | ≤ 1000 | – |
| CN(c1ccc2c(c1)OCCO2)c1nc(-c2cc3ccccc3s2)ncc1F [Compound 35, 2-(Benzothiophen-2-yl)-N-4-(3,4-ethylenedioxyphenyl)-5-fluoro-N-4-methyl-4-pyrimidineamine] | > 20000 | > 20000 | – |
| CN(c1ccc2c(c1)OCCO2)c1nc(-c2csc3ccccc23)ncc1F [Compound 36, 2-(Benzothiophen-3-yl)-N-4-(3,4-ethylenedioxyphenyl)-5-fluoro-N-4-methyl-4-pyrimidineamine] | > 20000 | > 20000 | – |
| CN(c1ccc2c(c1)OCCO2)c1nc(-c2ccc(Cl)s2)ncc1F [Compound 37, 2-(5-Chloro-2-thienyl)-N-4-(3,4-ethylenedioxyphenyl)-5-fluoro-N-4-methyl-4-pyrimidineamine] | 10000 to 20000 | > 20000 | – |
| CN(c1ccc2c(c1)OCCO2)c1nc(-c2ccsc2C=O)ncc1F [Compound 39, N4-(3,4-ethylenedioxyphenyl)-5-fluoro-2-(2-formylthien-3-yl)-N-4-methyl-4-pyrimidineamine] | ≤ 1000 | ≤ 1000 | – |
| CNCc1sccc1-c1ncc(F)c(N(C)c2ccc3c(c2)OCCO3)n1 [Compound 40, N4-(3,4-ethylenedioxyphenyl)-5-fluoro-N-4-methyl-2-(2-methylaminomethylenethien-3-yl)-4-pyrimidineamine] | 1000 to 10000 | ≤ 10000 | – |
| CN(c1ccc2c(c1)OCCO2)c1nc(-c2cc[s+]([O-])c2)ncc1F (stereo not shown) [Compound 41, N4-(3,4-ethylenedioxyphenyl)-5-fluoro-N-4-methyl-2-(1-oxide-3-thienyl)-4-pyrimidineamine] | 1000 to 10000 | ≤ 10000 | – |
| N4-(3,4-Ethylenedioxyphenyl)-5-fluoro-2-(3-hydroxyphenyl)-N-4-methyl-4-pyrimidineamine [Compound 19] | 1000 to 10000 | ≤ 10000 | – |

Continued, in another order:

| IC50 [1] [nM] | IC50 [9] [nM] | Molecule | further results |
| --- | --- | --- | --- |
| ≤ 1000 | ≤ 1000 | CN(c1ccc2c(c1)OCCO2)c1nc(Cl)ncc1F [Compound 1, 2-chloro-N-4-(3,4-ethylenedioxyphenyl)-5-fluoro-N-4-methyl-4-pyrimidineamine] | IC50 [2]: ≤ 1000 nM; IC50 [3]: ≤ 1000 nM; IC50 [4]: < 1000 nM; IC50 [5]: < 1000 nM; IC50 [6]: < 1000 nM; IC50 [7]: ≤ 1000 nM; IC50 [8]: < 1000 nM; IC50 (SKMEL28 (human melanoma)): < 1000 nM; IC50 (SKMEL5 (human melanoma)): < 1000 nM |
| ≤ 1000 | ≤ 1000 | COc1ccc(N(C)c2nc(Cl)ncc2F)cc1OC [Compound 2] | – |
| ≤ 10000 | 1000 to 10000 | COc1c(Cl)cc(N(C)c2nc(Cl)ncc2F)cc1Cl [Compound 5] | – |
| > 20000 | > 20000 | COc1cc(N(C)c2nc(Cl)ncc2F)ccc1Cl [Compound 6] | – |
| ≤ 1000 | ≤ 1000 | COc1ccc(N(C)c2nc(Cl)ncc2F)cc1Cl [Compound 7] | – |
| ≤ 10000 | 1000 to 10000 | CCCN(c1ccc(OC)c(Cl)c1)c1nc(Cl)ncc1F [Compound 9] | – |
| > 20000 | > 20000 | COc1cc(N(C)c2nc(Cl)ncc2F)cc(OC)c1OC [Compound 10] | – |
| > 20000 | > 20000 | Cc1cc(N(C)c2nc(Cl)ncc2F)cc(C)c1Cl [Compound 11] | – |
| > 20000 | > 20000 | COc1cc(OC)cc(N(C)c2nc(Cl)ncc2F)c1 [Compound 12] | – |
| 1000 to 10000 | ≤ 10000 | COc1ncc(F)c(N(C)c2ccc3c(c2)OCCO3)n1 [Compound 15] | – |
